Results reported in paper PMC4599014, “The Cell Shape-determining Csd6 Protein from Helicobacter pylori Constitutes a New Family of L,D-Carboxypeptidase*” (The Journal of Biological Chemistry, 2015).
Where two headings read alike, the source gives them in different places. [ ]: non-standard residue; d: D form. mDAP = meso-diaminopimelic acid

How the values were obtained:
Csd6 [1] = experiment: Crystal structure of D-Ala-bound Csd6; type: binding, Helicobacter pylori 26695; settings: native crystal preincubated 2 min with 96 mM D-Ala; 2.04 Å, PDB 4Y4V
Description: Native crystals of ligand-free Csd6 were grown at 23 °C by the sitting-drop vapor diffusion method. Sitting drops were prepared by mixing 0.5 μl of the protein solution, 0.1 μl of a 10-fold diluted microseed crystal solution, and 0.4 μl of the reservoir solution (1.5% (v/v) Tacsimate, pH 7.0, 22% (w/v) PEG 3,350, and 100 mM sodium-HEPES, pH 7.5). The microseed crystals were originally obtained with ligand-free Csd6 using the above reservoir solution. The crystals grew to approximate dimensions of 0.2 × 0.1 × 0.05 mm within a few days. X-ray diffraction data for the ligand-free Csd6 (Csd6-unbound) were collected at 100 K using a cryoprotectant solution containing 20% (v/v) glycerol added to the reservoir solution (Table 1). X-ray diffraction data for the D-Ala-bound Csd6 (Csd6-Ala) were collected at 100 K after the native crystal was preincubated for 2 min in a cryoprotectant solution containing both 20% (v/v) glycerol and 96 mM D-Ala, which were added to the reservoir solution (Table 1). The structures of both Csd6-unbound and Csd6-Ala were determined by molecular replacement with the program MolRep ([47]) using the refined model of EMTS-derivatized Csd6. Stereochemistry of the refined models was evaluated using MolProbity ([48]).

H. pylori Csd6 = H. pylori Csd6 (Helicobacter pylori, UniProt O25255); experiment: SPR kinetics and affinity on immobilized Csd6; type: binding, Helicobacter pylori 26695; settings: for kon: read-out: association rate constant ka; for koff: read-out: dissociation rate constant kd
Description: The kinetics and affinity of Csd6 with the synthetic muramyl tetrapeptide and muramyl tripeptide (β-methyl N-acetylmuramic acid-L-Ala^1-γ-D-Glu^2-mDAP^3) as a reaction product were assessed using a Reichert SR7500 surface plasmon resonance (SPR) dual channel instrument (Reichert, Depew, NY). Purified Csd6 in 20 mM sodium acetate, pH 5.5, was immobilized using the standard amino coupling at 20 μl min^−1 on a carboxymethyl dextran hydrogel surface sensor chip (Reichert, Depew, NY) until saturation was achieved. The running buffer B used in all SPR experiments was 20 mM HEPES, pH 7.9, and 150 mM sodium chloride. SPR experiments were performed at 25 °C. The muramyl tetrapeptide or muramyl tripeptide at concentrations of 15.6, 31.3, 62.5, 125, 250, and 500 μM was injected over the Csd6-chip at 30 μl min^−1 for 5 min for association analyses. Subsequently, the running buffer was flowed over the chip for an additional 6 min (30 μl min^−1) for dissociation analyses. Regeneration of the chip was carried out using 20 mM sodium hydroxide. Binding was detected as a change in the refractive index at the surface of the chip as measured by the response unit. A reference flow cell was used to record the response by bovine serum albumin (BSA) as a […], and the response by BSA was subtracted from each sample. SPR data were fit using the Scrubber2 software.
FIGURE 5.

LdtMt2 = settings: positive control for L,D-TPase activity; recombinant LdtMt2 (Ala-55–Ala-408); MALDI-QIT-TOF MS
Csd6 [2] = type: biochemical, Helicobacter pylori 26695; settings: analyte 5 mM, Csd6 5 μM, 2 h, 37 °C; 20 mM sodium phosphate, pH 6.0, 150 mM sodium chloride; MALDI-QIT-TOF MS
[3] = target: the molecule itself; experiment: AUC; equilibrium sedimentation; 20 mM Tris-HCl pH 7.9, 150 mM NaCl, 1.5 mM TCEP, 20 °C; 16,000 and 20,000 rpm; Csd6 monomer concentrations 2.74, 3.65 and 4.56 μM
[4] = recombinant hexahistidine-tagged Csd6; cited from earlier work
Description: In many bacteria, including H. pylori, the peptidoglycan layer is remodeled by a number of cell-wall hydrolases as well as synthetases for the peptidoglycan maturation, regulation of cell-wall growth, cell division, peptidoglycan turnover and recycling, cell lysis, and the release of peptidoglycan fragments for host-pathogen interactions ([18]). In H. pylori, an amidase AmiA ([19]), peptidases Csd1–4, potential regulators Csd5 and CcmA ([20][–][22]), and another peptidase Csd6 ([23]) are required to tailor the peptidoglycan layer to generate the helical cell shape. We have recently reported th ...

[5] = type: biochemical; settings: muramyl tetrapeptide
[6] = SPR, Reichert SR7500, Csd6 immobilized by amine coupling, 20 mM HEPES, pH 7.9, 150 mM sodium chloride, 25 °C, analyte 15.6-500 μM, Scrubber2 fit, read-out: KD
[7] = muramyl tripeptide vs muramyl tetrapeptide, SPR, Csd6

For `C[C@@H](N)C(=O)O` [D-Ala], the “binding in crystal structure (in words)” value (Csd6 [1]) was “two D-Ala molecules are well ensconced within the active site of monomer A with clear electron density”, the Kd (H. pylori Csd6) was 224 µM and the kon (H. pylori Csd6) was 1.05 M⁻¹ s⁻¹. It also gave a koff (H. pylori Csd6) of 0.00023 s⁻¹.

Molecule `N[C@H](CCC[C@H](N)C(=O)O)C(=O)O` [mDAP, meso-2,6-diaminopimelate] has a Kd (H. pylori Csd6) of 94 µM, a kon (H. pylori Csd6) of 1.49 M⁻¹ s⁻¹ and a koff (H. pylori Csd6) of 0.00014 s⁻¹.

With “β-methyl N-acetylmuramic acid-L-Ala^1-γ-D-Glu^2-mDAP^3 [muramyl tripeptide]” the Kd (H. pylori Csd6; [6]) was 510 µM, the “ka relative to that for the muramyl tetrapeptide” value (H. pylori Csd6; [7]) was “roughly 3 ×” and the “kd relative to that for the muramyl tetrapeptide” value (H. pylori Csd6; [7]) was ~50 ×.

For “β-methyl N-acetylmuramic acid-L-Ala^1-γ-D-Glu^2-mDAP^3-D-Ala^4 ({β‑methyl N‑acetylmuramic acid}-AE[mDAP][dA]-OH; not fully specified (residue 2)) [muramyl tetrapeptide]”, the Kd (H. pylori Csd6; [6]) was 27 µM.

In the case of “β-methyl N-acetylmuramic acid-L-Ala^1-γ-D-Glu^2-mDAP^3-D-Ala^4 [muramyl tetrapeptide]”, the “reaction product upon incubation with LdtMt2” value (LdtMt2) is reported as “not only the muramyl tripeptide (Tri in Fig. 1C) but also the dimeric cross-linked species (Tetra-Tri in Fig. 1C) were detected as the reaction products” and the “reaction product upon incubation with Csd6” value (Csd6 [2]) is reported as “the muramyl tripeptide was detected as the sole reaction product of trimming without any dimeric cross-linked species”.

With “β-methyl N-acetylmuramic acid-L-Ala^1-γ-D-Glu^2-mDAP^3-D-Ala^4-D-Ala^5 [muramyl pentapeptide]” the “reaction product upon incubation with Csd6” value (Csd6 [2]) was “no reaction product could be detected”.

B1: Helicobacter pylori Csd6 (HP0518), residues Val-13–Lys-330 (enzyme, Helicobacter pylori 26695, UniProt O25255 13-330, looked up)
chain: VGLNASDRLLEIMRLYQKQGLEMVGQKLDSYLADKSFWAEELQNKDTDFGYYQNKQFLFVANKSKPSLEFYEIENNMLKKINSSKALVGSKKGDKTLEGDLATPIGVYRITQKLERLDQYYGVLAFVTNYPNLYDTLKKRTGHGIWVHGMPLNGDRNELNTKGCIAIENPLLSSYDKVLKGEKAFLITYEDKFFPSTKEELSMILSSLFQWKEAWARGDFERYMRFYNPNFTRYDGMKFNAFKEYKKRVFAKNEKKNIAFSSINVIPYPNSQNKRLFYVVFDQDYKAYQHNKLSYSSNSQKELYIEIENNQVSIIMEK
notes: Csd6 (HP0518), L,D-carboxypeptidase of Helicobacter pylori strain 26695, residues Val-13–Lys-330 of the gene product; In the Csd6-Ala crystal, Cys-176 of monomer A is oxidised to sulfenic acid; also called Csd6(13–330); recombinant Csd6; source: E. coli Rosetta2(DE3)pLysS, purified (HiTrap Chelating HP, Superdex 200)
For B1, the “stoichiometry N” value [3] was 2.

B2: Csd6: recombinant H. pylori 26695 Csd6 protein, residues Val-13–Lys-330, with N-terminal His6-containing tag (protein)
chain: VGLNASDRLLEIMRLYQKQGLEMVGQKLDSYLADKSFWAEELQNKDTDFGYYQNKQFLFVANKSKPSLEFYEIENNMLKKINSSKALVGSKKGDKTLEGDLATPIGVYRITQKLERLDQYYGVLAFVTNYPNLYDTLKKRTGHGIWVHGMPLNGDRNELNTKGCIAIENPLLSSYDKVLKGEKAFLITYEDKFFPSTKEELSMILSSLFQWKEAWARGDFERYMRFYNPNFTRYDGMKFNAFKEYKKRVFAKNEKKNIAFSSINVIPYPNSQNKRLFYVVFDQDYKAYQHNKLSYSSNSQKELYIEIENNQVSIIMEK
modifications: left off: His6-containing tag, N-terminal, state not stated
notes: recombinant H. pylori 26695 Csd6 protein, residues Val-13–Lys-330, with N-terminal His6-containing tag
In the case of B2, the “conversion of monomeric tetrapeptides” value [4] is given as “complete conversion of the monomeric tetrapeptides to tripeptides” and the “L,D-carboxypeptidation activity upon EDTA treatment (in words)” value [5] is given as “no change upon EDTA treatment”.
